Where two headings read alike, the source gives them in different places.
Biological target: T1, androgen receptor (AR) (Homo sapiens, UniProt P10275)
T1 sequence (P10275 1-920): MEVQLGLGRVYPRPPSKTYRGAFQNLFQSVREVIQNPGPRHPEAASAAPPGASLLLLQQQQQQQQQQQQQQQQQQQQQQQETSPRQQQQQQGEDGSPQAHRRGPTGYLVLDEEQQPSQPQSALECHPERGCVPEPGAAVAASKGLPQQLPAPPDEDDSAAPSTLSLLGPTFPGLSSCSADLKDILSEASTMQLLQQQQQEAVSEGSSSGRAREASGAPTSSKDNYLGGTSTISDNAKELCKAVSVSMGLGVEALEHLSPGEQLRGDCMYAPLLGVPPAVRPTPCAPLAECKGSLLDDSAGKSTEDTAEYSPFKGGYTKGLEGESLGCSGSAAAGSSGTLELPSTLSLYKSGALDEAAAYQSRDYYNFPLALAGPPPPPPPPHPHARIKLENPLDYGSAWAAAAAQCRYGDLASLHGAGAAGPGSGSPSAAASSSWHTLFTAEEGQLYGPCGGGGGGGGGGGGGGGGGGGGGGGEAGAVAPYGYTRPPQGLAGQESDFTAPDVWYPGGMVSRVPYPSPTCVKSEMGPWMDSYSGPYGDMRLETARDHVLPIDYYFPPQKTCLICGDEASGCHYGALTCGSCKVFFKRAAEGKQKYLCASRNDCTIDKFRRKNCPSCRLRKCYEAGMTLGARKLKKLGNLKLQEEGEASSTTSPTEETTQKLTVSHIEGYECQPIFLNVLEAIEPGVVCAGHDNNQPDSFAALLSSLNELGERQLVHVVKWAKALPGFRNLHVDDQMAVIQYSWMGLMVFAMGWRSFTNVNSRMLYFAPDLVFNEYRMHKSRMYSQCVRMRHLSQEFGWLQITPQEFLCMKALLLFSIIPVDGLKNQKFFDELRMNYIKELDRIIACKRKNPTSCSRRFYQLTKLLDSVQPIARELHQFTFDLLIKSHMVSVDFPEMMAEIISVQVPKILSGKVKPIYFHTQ
Test: Degradation of androgen receptor (AR) protein in VCaP cells by ELISA
Format: cell-based
Details: for Dmax: VCaP

[1] = AR degradation, VCaP cells, 16 h, ELISA, Table 3-1, read-out: DC50
[2] = AR degradation, VCaP cells, 16 h, ELISA, Table 3-1, read-out: Dmax (%)

SMILES | DC50 [µM] | Dmax [%] | DC50 [1] [µM] | Dmax [2] [%]
N#Cc1ccc(O[C@H]2CC[C@H](NC(=O)c3cnc(N4CCC(CN5CCC6(CC5)CN(c5ccc7c(c5)C(=O)N(C5CCC(=O)NC5=O)C7=O)C6)CC4)cn3)CC2)cc1Cl (stereo partly shown) [Compound 241, N-((1r,4r)-4-(3-chloro-4-cyanophenoxy)cyclohexyl)-6-(4-((2-(2-(2-,2,6-dioxopiperidin-3-yl)-1,3-dioxoisoindolin-5-yl)-2,7-diazaspiro[3.5]nonan-7-yl)methyl)piperidin-1-yl)pyrazine-3-carboxamide] | < 0.01 | > 80 | – | –
N#Cc1ccc(O[C@H]2CC[C@H](NC(=O)c3cnc(N4CC5(CCN(C6CCN(c7cc8c(cc7F)C(=O)N(C7CCC(=O)NC7=O)C8=O)CC6)CC5)C4)cn3)CC2)cc1Cl (stereo partly shown) [Compound 242, N-((1r,4r)-4-(3-chloro-4-cyanophenoxy)cyclohexyl)-5-(7-(1-(2-(2,6-dioxopiperidin-3-yl)-6-fluoro-1,3-dioxoisoindolin-5-yl)piperidine-4-yl)-2,7-diazaspiro[3.5]nonan-2-yl)pyrazine-2-carboxamide] | – | – | < 0.01 | > 80
N#Cc1ccc(O[C@H]2CC[C@H](NC(=O)c3nnc(N4CCC(CN5CCC6(CC5)CN(c5ccc7c(c5)C(=O)N(C5CCC(=O)NC5=O)C7=O)C6)CC4)s3)CC2)cc1Cl (stereo partly shown) [Compound 243] | < 0.01 | > 80 | – | –
N#Cc1ccc(O[C@H]2CC[C@H](NC(=O)c3nnc(N4CCC(CN5CCC6(CC5)CN(c5cc7c(cc5F)C(=O)N(C5CCC(=O)NC5=O)C7=O)C6)CC4)s3)CC2)cc1Cl (stereo partly shown) [Compound 244] | – | > 80 | < 0.01 | –
N#Cc1ccc(O[C@H]2CC[C@H](NC(=O)c3cnn([C@H]4CC[C@H](CN5CCC6(CC5)CN(c5ccc7c(c5)C(=O)N(C5CCC(=O)NC5=O)C7=O)C6)CC4)c3)CC2)cc1Cl (stereo partly shown) [Compound 245] | – | 60 to 80 | 0.01 to 0.1 | –
N#Cc1ccc(O[C@H]2CC[C@H](NC(=O)c3cnn([C@H]4CC[C@H](CN5CCC6(CC5)CN(c5cc7c(cc5F)C(=O)N(C5CCC(=O)NC5=O)C7=O)C6)CC4)c3)CC2)cc1Cl (stereo partly shown) [Compound 246] | – | 60 to 80 | 0.01 to 0.1 | –
N#Cc1ccc(O[C@H]2CC[C@H](NC(=O)c3ccc(N4CCC(CN5CCC6(CC5)CN(c5ccc7c(=O)n(C8CCC(=O)NC8=O)cnc7c5)C6)CC4)nn3)CC2)cc1Cl (stereo partly shown) [Compound 247] | – | – | < 0.01 | > 80
N#Cc1ccc(O[C@H]2CC[C@H](NC(=O)c3ccc(N4CCC5(CCN(CC6CCN(c7cc8c(cc7F)C(=O)N(C7CCC(=O)NC7=O)C8=O)CC6)CC5)CC4)nn3)CC2)cc1Cl (stereo partly shown) [Compound 261] | – | – | < 0.01 | > 80
N#Cc1ccc(O[C@H]2CC[C@H](NC(=O)c3ccc(N4CCC5(CCN(CC6CCN(c7ccc8c(c7)C(=O)N(C7CCC(=O)NC7=O)C8=O)CC6)CC5)CC4)nn3)CC2)cc1Cl (stereo partly shown) [Compound 262, N-((1r,4r)-4-(3-chloro-4-cyanophenoxy)cyclohexyl)-6-(9-((1-(2-(2,6-dioxopiperidin-3-yl)-1,3-dioxoisoindolin-5-yl)piperidine-4-yl)methyl)-3,9-diazaspiro[5.5]undecan-3-yl)pyridazine-3-formamide] | – | – | < 0.01 | > 80
C[C@@H]1CN(C[C@@H]2[C@H]3CN(c4cc5c(cc4F)C(=O)N(C4CCC(=O)NC4=O)C5=O)C[C@@H]23)CCN1c1ccc(C(=O)N[C@H]2CC[C@H](Oc3ccc(C#N)c(Cl)c3)CC2)nn1 (stereo partly shown) [Compound 263] | – | – | < 0.01 | 60 to 80
C[C@@H]1CN(C[C@@H]2[C@H]3CN(c4cc5c(cc4F)C(=O)N(C4CCC(=O)NC4=O)C5=O)C[C@@H]23)CCN1c1cnc(C(=O)N[C@H]2CC[C@H](Oc3ccc(C#N)c(Cl)c3)CC2)cn1 (stereo partly drawn) [Compound 264, N-((1r,4R)-4-(3-chloro-4-cyanophenoxy)cyclohexyl)-5-((2R)-4-((1R,5S,6s)-3-(2-(2,6-dioxopiperidin-3-yl)-6-fluoro-1,3-dioxoisoindolin-5-yl)-3-azabicyclo[3.1.0]n-hexane-6-yl)methyl-2-methylpiperazin-1-yl)pyrazine-2-carboxamide] | – | – | 0.01 to 0.1 | 60 to 80

Reference: patent publication US20230091225A1, “Bifunctional chimeric heterocyclic compounds for targeted degradation of androgen receptors and use thereof” (HINOVA PHARMACEUTICALS INC., priority 2019, published 2023)
